# Measurements taken from patent US5112807A, “Compound "Leualacin", its preparation and its use in the treatment of cardiovascular disorders” (Sankyo Company, Limited, priority 1988, dated 1992).
# Legend:
# [1] = target: T1, calcium channel (3H-nitrendipine binding to microsome fraction prepared from porcine heart) (Sus scrofa, UniProt A0A8W4FNC0); test: Radioligand binding assay: inhibition of 3H-nitrendipine binding to microsomes; conditions: 200 PM 3H-nitrendipine, 25° C., 30 minutes, pH 7.4, read-out: ID50, inhibition of binding of 3H-nitrendipine to microsomes (converted)
# T1 construct: 15 to 20 μg of a microsome fraction prepared from porcine heart; from tissue; host or cells: porcine heart microsome fraction
# Text: The progress of the cultivation and the amount of Leualacin produced as the culture proceeds can be determined by a radio ligand binding assay method, that is, for example, the method of […] and R. E. Oswald [Journal of Biological Chemistry, 260, 8456-8464 (1985)] which is based on the ability of Leualacin to inhibit the binding of ^3 H-nitrendipine to microsomes. High performance liquid chromatography may also be used. […] This experiment used a radioligand binding assay method, which is a modification of the method of […] and R. E. Oswald [Journal of Biological Chemistry, 260, 8456-8464 [(1985)], to determine the activity which inhibits the binding of ^3 H-nitrendipine to microsomes. The reaction was carried out at 25° C. for 30 minutes in 1 ml of a reaction mixture comprising 15 to 20 μg of a microsome fraction prepared from porcine heart, 200 PM ^3 H-nitrendipine (NEN-Dupont Pharmaceuticals, specific activity 88.1 Ci/mM), 50 mM NaOH-HEPES buffer (pH 7.4) and 0.5% by volume ethanol. (HEPES is N-2-hydroxyethylpiperazine-N'-2-ethanesulfonic acid). […] The glass-fibre filter was then put in a vial and OPTIFLUOR (Packard Co., Ltd.) was used as the scintillator and the radioactivity (as disintegrations per minute) was measured.
# [2] = tested on: tenia caecum; test: Calcium antagonizing action in the tenia caecum; type: cell-based, guinea pigs; conditions: 30 minutes incubation, calcium chloride-induced contraction
# Method: The calcium antagonizing activity in the tenia caecum was measured according to the method of M. Spedding [Naunyn-Schmiedeberg's Arch. Pharmacol. 318, 234-240(1982)]. Male guinea pigs weighing 250 to 300 g were laparotomized under pentobarbital anesthesia and the tenia was immediately removed from the caecum. The tenia was cut into strips of 6-7 cm length and suspended in a Magnus vessel filled with 20 ml of Tyrode's solution without calcium aerated with a mixed gas (O2 95%-CO2 5% by volume). After the specimen had eguilibrated by standing for 1 hour under the above conditions, 0.2 ml each of 30, 100 and 300 mM aqueous calcium chloride solutions were cumulatively added at 3 minute intervals and the contraction of the specimen was measured. After the measurements, the specimen was washed twice with Tyrode's solution without calcium and left for 30 minutes. The specimen was then incubated with Leualacin for 30 minutes, after which 0.2 ml each of 30, 100 and 300 mM calcium chloride solutions were cumulatively added at 3 minute intervals in the same manner as above, and the contraction was again measured. The contraction after the treatment with the Leualacin solution was deducted from that after the treatment with the calcium chloride solution alone and the value obtained was divided by the contraction after the treatment with the calcium chloride solution alone, to give the antagonizing rate.
# [3] = tested on: SHR (spontaneously hypertensive rats); test: Antihypertensive activity in SHR; type: in vivo; conditions: conscious male SHR
# Method: Male SHR (spontaneously hypertensive rats), 15 weeks old, were anesthetized with sodium pentobarbital (50 mg/kg intraperitoneally). and a polyethylene cannula was inserted through the left femoral artery into the abdominal aorta. The other end of the cannula was led out of the body and fixed at the back of the neck. One week after the operation, when the animal had recovered from the stress of the surgery, the other end of the cannula was connected to a blood pressure transducer, which was constructed according to the directions of Laffan et al. [Laffan, P. J., Peterson A., Hitch S. W. and Jeunelot C., Cardiovascular Res. 6, 319-324 (1972)], but with slight modifications. The blood pressure and heart rate of the conscious and unstressed SHR were measured. After the blood pressure and the heart rate had stabilised for more than one hour, the test drug was administered by gavage. After administration of the test sample, the blood pressure and the heart rate were measured every 15 minutes over a […] is shown in Table 2.
# [4] = Chemical and physical properties: description and solubility; type: physicochemical
# Text: Leualacin has the molecular structure shown above and the following chemical and physical properties: […]
# [5] = tested on: mice; test: Acute toxicity; type: in vivo; conditions: orally, 200 mg/kg
# Method: No toxicity was noted when Leualacin was orally administered to mice at a dose of 200 mg/kg, which is far in excess of any reasonable therapeutic dose.
# T1 sequence (A0A8W4FNC0 1-2067): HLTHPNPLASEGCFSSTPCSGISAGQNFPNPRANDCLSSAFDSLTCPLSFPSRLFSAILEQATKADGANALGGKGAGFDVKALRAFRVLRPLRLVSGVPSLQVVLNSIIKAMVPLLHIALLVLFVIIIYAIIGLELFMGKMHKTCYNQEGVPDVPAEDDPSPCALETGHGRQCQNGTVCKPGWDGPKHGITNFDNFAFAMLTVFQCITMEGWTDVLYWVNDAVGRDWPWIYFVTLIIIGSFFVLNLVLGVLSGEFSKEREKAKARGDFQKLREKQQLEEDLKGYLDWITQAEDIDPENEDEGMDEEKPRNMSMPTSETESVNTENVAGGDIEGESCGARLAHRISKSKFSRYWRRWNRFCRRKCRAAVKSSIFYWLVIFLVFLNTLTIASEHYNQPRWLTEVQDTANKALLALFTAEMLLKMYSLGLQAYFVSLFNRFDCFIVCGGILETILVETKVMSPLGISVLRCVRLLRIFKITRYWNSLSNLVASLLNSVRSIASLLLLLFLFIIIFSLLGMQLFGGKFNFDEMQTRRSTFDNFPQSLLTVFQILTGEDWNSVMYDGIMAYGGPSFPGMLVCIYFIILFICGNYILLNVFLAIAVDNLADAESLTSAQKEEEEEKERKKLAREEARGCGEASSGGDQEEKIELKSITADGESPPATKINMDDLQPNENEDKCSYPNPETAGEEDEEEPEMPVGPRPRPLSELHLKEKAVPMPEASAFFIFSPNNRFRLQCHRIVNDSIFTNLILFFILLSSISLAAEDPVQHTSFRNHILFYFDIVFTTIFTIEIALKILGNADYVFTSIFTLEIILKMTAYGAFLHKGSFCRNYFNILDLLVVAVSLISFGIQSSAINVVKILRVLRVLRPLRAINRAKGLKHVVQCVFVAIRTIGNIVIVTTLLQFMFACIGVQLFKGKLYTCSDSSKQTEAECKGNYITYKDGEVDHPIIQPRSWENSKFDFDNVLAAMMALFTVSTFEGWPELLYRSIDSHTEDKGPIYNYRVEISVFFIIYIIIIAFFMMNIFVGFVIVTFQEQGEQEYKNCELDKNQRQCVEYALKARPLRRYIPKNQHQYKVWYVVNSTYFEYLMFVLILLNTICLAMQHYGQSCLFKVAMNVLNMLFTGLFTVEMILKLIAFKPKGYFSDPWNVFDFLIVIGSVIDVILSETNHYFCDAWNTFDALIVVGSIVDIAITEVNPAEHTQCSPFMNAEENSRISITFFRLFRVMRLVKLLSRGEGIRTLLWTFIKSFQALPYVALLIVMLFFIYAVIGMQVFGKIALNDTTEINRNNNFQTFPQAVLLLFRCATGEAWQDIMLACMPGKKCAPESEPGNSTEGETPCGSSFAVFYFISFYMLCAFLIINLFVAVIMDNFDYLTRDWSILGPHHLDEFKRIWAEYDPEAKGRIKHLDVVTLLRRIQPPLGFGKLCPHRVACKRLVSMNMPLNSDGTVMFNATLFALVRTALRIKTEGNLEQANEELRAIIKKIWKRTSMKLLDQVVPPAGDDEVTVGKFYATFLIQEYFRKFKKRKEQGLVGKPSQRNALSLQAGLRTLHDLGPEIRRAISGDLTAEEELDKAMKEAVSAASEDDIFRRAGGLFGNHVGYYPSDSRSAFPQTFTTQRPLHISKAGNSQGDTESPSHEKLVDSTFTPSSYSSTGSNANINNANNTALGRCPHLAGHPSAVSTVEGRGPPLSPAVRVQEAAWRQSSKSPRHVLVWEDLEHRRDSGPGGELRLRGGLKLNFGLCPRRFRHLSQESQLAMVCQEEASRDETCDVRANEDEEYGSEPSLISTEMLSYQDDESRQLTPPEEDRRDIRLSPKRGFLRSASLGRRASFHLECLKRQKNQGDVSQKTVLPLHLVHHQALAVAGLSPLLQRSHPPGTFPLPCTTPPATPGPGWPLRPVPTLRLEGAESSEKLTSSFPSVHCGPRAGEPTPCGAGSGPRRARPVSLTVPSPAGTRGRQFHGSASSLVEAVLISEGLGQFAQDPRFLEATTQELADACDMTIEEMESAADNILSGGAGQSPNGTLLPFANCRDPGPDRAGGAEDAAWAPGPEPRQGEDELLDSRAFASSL
smiles,measurement,setting,value
"CC(C)CC1NC(=O)C(CC(C)C)OC(=O)CCNC(=O)C(Cc2ccccc2)N(C)C(=O)C(CC(C)C)OC1=O (centres unmarked) [Leualacin, 11-benzyl-2,5,8-triisobutyl-10-methyl-1,7-dioxa-4,10,13-triazacyclohexadec ane-3,6,9,12,16-pentone]",IC50,[1],1730 nM
same,Antagonizing rate (%),[2]; Leualacin 10^-6 g/ml,97%
same,Antagonizing rate (%),[2]; Leualacin 10^-7 g/ml,73%
same,Antagonizing rate (%),[2]; Leualacin 10^-8 g/ml,22%
same,Antagonizing rate (%),[2]; Leualacin 10^-9 g/ml,0%
same,Decrease of blood pressure (mmHg),[3]; 100 μg/kg by gavage,44 mmHg
same,Decrease of blood pressure (mmHg),[3]; 300 μg/kg by gavage,57 mmHg
same,Description,[4],"neutral, fat-soluble"
same,Solubility in organic solvents,"[4]; methanol, acetone, chloroform and ethyl acetate",Soluble
same,Solubility in water,[4]; water,insoluble
same,Acute toxicity,[5],No toxicity
